Source: ChEMBL document CHEMBL1201862, “PubChem BioAssay data set” (2004)
Where “and” joins values, the source holds several entries; their conditions need not be identical. Equal values may be shown once.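 Grown in 96-well plates, cells were treated for 48 hours with each compound at five concentrations. Insufficient inhibition: endpoint recorded as highest concentration tested. GI50 marks 50% less growth.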 Calls of active or inactive are those of the source. Rule as the data show it: active = GI50 up to about 1.1 µM and inactive = higher.

Columns and labels:
Assay in all cases: NCI anticancer screen, dose series, 48 h
A549 = tested on: A549
CCRF-CEM = tested on: CCRF-CEM
HCT-116 = tested on: HCT-116
HCT-15 = tested on: HCT-15
Hs-578T = tested on: Hs-578T
K562 = tested on: K562
MDA-MB-231 = tested on: MDA-MB-231
Malme-3M = tested on: Malme-3M
NCI-H460 = tested on: NCI-H460
NCI/ADR-RES = tested on: NCI/ADR-RES
OVCAR-3 = tested on: OVCAR-3
OVCAR-8 = tested on: OVCAR-8
PC-3 = tested on: PC-3
RPMI-8226 = tested on: RPMI-8226
SK-MEL-2 = tested on: SK-MEL-2
T47D = tested on: T47D
U-251 = tested on: U-251
A498 = tested on: A498
NCI-H522 = tested on: NCI-H522

| SMILES | GI50 (A549) | GI50 (CCRF-CEM) | GI50 (HCT-116) | GI50 (HCT-15) [µM] | GI50 (Hs-578T) | GI50 (K562) | GI50 (MDA-MB-231) | GI50 (Malme-3M) | GI50 (NCI-H460) | GI50 (NCI/ADR-RES) | GI50 (OVCAR-3) | GI50 (OVCAR-8) | GI50 (PC-3) | GI50 (RPMI-8226) | GI50 (SK-MEL-2) | GI50 (T47D) | GI50 (U-251) | GI50 (A498) | GI50 (NCI-H522) |
| --- | --- | --- | --- | --- | --- | --- | --- | --- | --- | --- | --- | --- | --- | --- | --- | --- | --- | --- | --- |
| CC1(C)C(/C=N\O)=[N+]([O-])C(C)(C)N1O | > 100 µM (inactive) | 89.7 µM (inactive) | > 100 µM (inactive) | > 100 | > 100 µM (inactive) | > 100 µM (inactive) | > 100 µM (inactive) | > 100 µM (inactive) | > 100 µM (inactive) | > 100 µM (inactive) | 49.7 µM (inactive) | > 100 µM (inactive) | > 100 µM (inactive) | > 100 µM (inactive) | > 100 µM (inactive) | > 100 µM (inactive) | > 100 µM (inactive) |  |  |
| Cc1ccc(-n2cc(-c3ccc(Cl)cc3)c(C#N)c2N)cc1 | 17.4 µM (inactive) | 15.5 µM (inactive) | 14 µM (inactive) | 12.1 | 2.38 µM (inactive) | 16.6 µM (inactive) | 14.7 µM (inactive) | 18 µM (inactive) | 15.1 µM (inactive) | 17.3 µM (inactive) | 15.6 µM (inactive) | 15.9 µM (inactive) | 12.6 µM (inactive) |  | 15.2 µM (inactive) |  | 14.2 µM (inactive) | 18.4 µM (inactive) | 12.1 µM (inactive) |
| CC1=NC(=Cc2ccc(O)cc2)C(=O)N1n1c(-c2ccccc2)nc2ccccc2c1=O | > 100 µM (inactive) | > 100 µM (inactive) | > 100 µM (inactive) | > 100 | > 100 µM (inactive) | > 100 µM (inactive) | > 100 µM (inactive) | > 100 µM (inactive) | > 100 µM (inactive) |  |  | > 100 µM (inactive) | > 100 µM (inactive) | > 100 µM (inactive) |  | > 100 µM (inactive) |  | > 100 µM (inactive) | > 100 µM (inactive) |
| CC(C)CC[C@H](O)[C@@H](C)[C@H]1[C@@H](OC2OC(C)C(O)C(O)C2O)C[C@H]2[C@@H]3CC=C4C[C@@H](O)CC[C@]4(C)[C@H]3[C@@H](O)C[C@]12C (some centres not stated) |  | 0.25 µM (active) | 0.258 µM (active) | > 56.1 | 0.121 µM (active) | 0.235 µM (active) |  | 1.85 µM (inactive) | 0.241 µM (active) | > 92.9 µM (inactive) | > 100 µM (inactive) | > 100 µM (inactive) |  | 0.0631 µM (active) | > 27 µM (inactive) |  | 0.0562 µM (active) | 3.46 µM (inactive) | 3.69 µM (inactive) |
| O=c1[nH]c(=O)n(C2OC(CO)C(O)C2O)c2ccsc12 (configuration not stated) | > 100 µM (inactive) | > 100 µM (inactive) | > 100 µM (inactive) | > 100 | > 100 µM (inactive) | > 100 µM (inactive) | > 100 µM (inactive) | > 100 µM (inactive) | > 100 µM (inactive) | > 100 µM (inactive) | > 100 µM (inactive) | > 10 µM (inactive) | > 100 µM (inactive) | > 100 µM (inactive) | > 100 µM (inactive) |  | > 100 µM (inactive) | > 100 µM (inactive) | > 100 µM (inactive) |
| CCOC(=O)c1c(SCCO)n(-c2ccccc2)c(=S)n(-c2ccccc2)c1=O | > 100 µM (inactive) | > 100 µM (inactive) | > 100 µM (inactive) | > 100 | > 100 µM (inactive) | > 100 µM (inactive) |  | > 100 µM (inactive) | > 100 µM (inactive) | > 100 µM (inactive) | > 100 µM (inactive) | > 100 µM (inactive) | > 100 µM (inactive) | > 100 µM (inactive) | > 100 µM (inactive) | > 100 µM (inactive) | > 100 µM (inactive) |  | > 100 µM (inactive) |
| C=CCC(OCCOCC)c1cc(OCCOCC)ccc1OC (configuration not stated) | > 100 µM (inactive) | > 100 µM (inactive) |  | > 100 |  | > 100 µM (inactive) |  | > 100 µM (inactive) | > 100 µM (inactive) |  | > 100 µM (inactive) | > 100 µM (inactive) |  | > 100 µM (inactive) | > 100 µM (inactive) |  | > 100 µM (inactive) |  | > 100 µM (inactive) |
| Cc1ccc(/N=N/c2cc(=O)[nH]c(=O)[nH]2)cc1C | 18.5 µM (inactive) | 2.2 µM (inactive) | 5.58 µM (inactive) | 2.85 | > 10 µM (inactive) | 2.79 µM (inactive) | 11.9 µM (inactive) | 14.4 µM (inactive) | 17.2 µM (inactive) | 34 µM (inactive) | 1.94 µM (inactive) | 14.6 µM (inactive) | 2.71 µM (inactive) | 3.01 µM (inactive) |  |  | 15.2 µM (inactive) | 18.4 µM (inactive) |  |
| CC1(C)CC2=C(SC3C=CC=CC3N2)C(=O)C1C(=O)C(N)=O (configuration not stated) | > 100 µM (inactive) | > 100 µM (inactive) | > 100 µM (inactive) | > 100 | > 100 µM (inactive) |  | > 100 µM (inactive) |  | > 100 µM (inactive) | > 100 µM (inactive) | > 100 µM (inactive) | > 100 µM (inactive) | 65.9 µM (inactive) |  | > 100 µM (inactive) |  | > 100 µM (inactive) |  | 72.3 µM (inactive) |
| N#CC(C#N)/N=C/c1ccncc1 | > 100 µM (inactive) | 28.7 µM (inactive) | > 100 µM (inactive) | > 100 |  | > 100 µM (inactive) | > 100 µM (inactive) | > 100 µM (inactive) |  | > 100 µM (inactive) | > 100 µM (inactive) | > 100 µM (inactive) | > 100 µM (inactive) | > 100 µM (inactive) | > 100 µM (inactive) | > 100 µM (inactive) | > 100 µM (inactive) | 95.9 µM (inactive) |  |
| Cc1cc(C)c(N)c(CO)c1 | 42.8 µM (inactive) and 73.6 µM (inactive) | > 100 µM (inactive) | 35.6 µM (inactive) and 19.3 µM (inactive) | > 100 | > 100 µM (inactive) | 59.8 µM (inactive) and 67.5 µM (inactive) | > 100 µM (inactive) | > 100 µM (inactive) | 46.7 µM (inactive) and 34 µM (inactive) | > 100 µM (inactive) | 32.7 µM (inactive) and 24.4 µM (inactive) | > 100 µM (inactive) | > 100 µM (inactive) | > 100 µM (inactive) | > 100 µM (inactive) |  | 61.1 µM (inactive) and 56.1 µM (inactive) |  |  |
| Oc1nc(S)nc2nc3c4cccnc4c4ccccc4c3nc12 | > 100 µM (inactive) | 74.6 µM (inactive) | > 100 µM (inactive) | > 100 | > 100 µM (inactive) |  |  | > 100 µM (inactive) | 57.3 µM (inactive) |  | > 100 µM (inactive) | > 100 µM (inactive) | > 100 µM (inactive) | 45.8 µM (inactive) |  |  | > 100 µM (inactive) | > 100 µM (inactive) | 86.3 µM (inactive) |
| CC(=O)NNc1nc(C)c(C(=O)/C=C/C=C/c2ccccc2)s1 |  | 61.2 µM (inactive) | 57.1 µM (inactive) | > 100 | > 100 µM (inactive) |  | 65.5 µM (inactive) | > 100 µM (inactive) | > 100 µM (inactive) | 70.6 µM (inactive) | 52.2 µM (inactive) | > 100 µM (inactive) |  | 76 µM (inactive) |  | 33.2 µM (inactive) | 71.9 µM (inactive) | > 100 µM (inactive) | 61.9 µM (inactive) |
